Assay results reported in PMC10481538, “Bioanalytical method validation and application to a phase 1, double-blind, randomized pharmacokinetic trial of a standardized Centella asiatica (L.) Urban water extract product in healthy older adults” (Frontiers in Pharmacology, 2023).
Entries after “also recorded” stand apart in the source; their conditions may differ. Read-outs that look alike come from different tables or passages of the source.

Experiments:
[1] = Analyte storage stability in human plasma
Method: (§5) Analytes were mixed with 50 µL of charcoal treated plasma (n = 5) or urine (n = 5) and placed in each of the following storage conditions: 1) long-term storage (two weeks at −80°C); 2) three freeze-thaw cycles during a two-week period stored at −80°C; 3) 4°C for 24 h; and 4) fresh preparation for same day analysis. All samples were processed together for analysis. Calibration curves generated from storage condition 4 samples were used to determine the concentration of analyte present in each storage condition. The percent difference from samples in condition 4 was used to determine stability.

[2] = Analyte storage stability in human urine
Method: as §5

clinical = conditions: for AUC(0-t): AUC(0-12)
Method: (§1) To each sample of participant plasma or urine, A. aerogenes sulfatase (2.5 µL; 10–20 units/mL), and E. coli glucuronidase (2.5 µL; ∼5,000–50,000 units/mL) were used to release the analytes from their sulfate and β-D-glucuronic acid esters (Phase II metabolites). For calibration and validation samples, aqueous glycerol (5 µL) was added to mimic the enzymatic hydrolysis. For all analyses, 1% ascorbic acid (10 µL) was added prior to sample work up to limit oxidation. Samples were incubated (37°C) for 20 min and placed on ice to halt enzymatic activity. […] The supernatant was filtered (0.22 µm spinfilter) at 10,000 g for 5 min at 4°C and used for analysis. To optimize peak shape during analysis, the concentration of organic solvent (sample filtrate) was adjusted to a 60:40 ratio with HPLC grade water for TT analysis and a 90:10 ratio with 1% aqueous formic acid for CQA analysis.
(§2) HPLC-MS/MS was performed at the Oregon Health & Science University’s (OHSU) Bioanalytical Shared Resource/Pharmacokinetics Core (Portland, OR, United States). […] Chromatographic separation was achieved using a Poroshell 120 EC18 column (3 mm id × 50 mm; 2.7 µ) and a Poroshell ultra high-performance liquid chromatography (UHPLC) guard column (3.0 mm i.d. Å∼ 5 mm, 2.7 μ) (Agilent, Santa Clara, CA, United States). The injection volume was 20 μL and flow rate was 0.42 mL/min. Gradient elution was performed using a mobile phase of solvent A (water containing 10 mM ammonium acetate and 0.02% ammonium hydroxide; pH 8.5) and solvent B (methanol). […] Chromatographic separation was achieved using a Zorbax Eclipse plus C8 Rapid resolution (4.6 i.d. Å∼ 150 mm, 3.5 μ) column with a Zorbax Eclipse plus C8 Rapid resolution (4.6 i.d. Å∼ 12.5 mm, 5 μ) guard column (Agilent, Santa Clara, CA, United States). The injection volume was 5 μL and flow rate of 0.8 mL/min. Gradient elution was performed using a mobile phase of solvent A (water containing 0.05% v/v acetic acid) and solvent B (acetonitrile with 0.05% v/v acetic acid).
(§3) Briefly, two in-person study visits occurred a minimum of two weeks and a maximum of four weeks apart in which participants orally consumed 2 or 4 g of CAP (in a randomized order) on an empty stomach. Total study duration was eight weeks including follow-up adverse event monitoring. All study procedures were identical for each visit except for the CAP dose administered. Randomization (to prevent tolerance effects) was performed using an arm equivalence design by the OHSU Research Pharmacy. All study personnel were blind to randomization allocation until all data analysis had been finalized. […] Participants fasted for 10 h, excluding water, prior to each study visit and for 2 h after consuming the study intervention to standardize gastrointestinal transit time and minimize food effects. During study visits, participants were provided low-phytochemical snacks and meals by the OCTRI CTRC’s Bionutrition Unit devoid of the foods outlined in Section 2.5. At each study visit, a peripheral intravenous catheter was placed in the arm to allow for repeat blood sampling. Prior to CAP intake, 20 mL of baseline blood and 50 mL of baseline urine were collected. […] Plasma aliquots (2 mL) were frozen and stored at -80°C until analysis. […] A 50 mL aliquot was retained and frozen at −80°C for renal excretion analysis.
(§4) Sample preparation and analysis: Plasma and urine sample preparation and analyte quantification by LC-MS/MS were performed in duplicate for each time point and visit (Sections 2.2–2.4). Due to the possibility of residual interference from the participant’s diet and unique, individual matrix effects, calibration curves were generated for each participant using their baseline plasma collected at the corresponding visit.

[3] = n = 7, mean (SEM)
Method: as §1, §2, §3, §4

[4] = encapsulated ECa 233, healthy adults; ref Songvut et al., 2019; cited from earlier work
[5] = condition 2 three freeze-thaw cycles, low concentration
[6] = condition 3 4°C for 24 h, medium concentration
[7] = condition 1 long-term storage at −80°C, low concentration
[8] = condition 2 freeze-thaw, medium concentration
[9] = condition 3 overnight storage at 4°C, low concentration
[10] = condition 1 long-term storage at -80°C, low concentration
[11] = condition 2 three freeze-thaw cycles, medium concentration
[12] = both, human, plasma, po, 2 g, single oral 2 g CAW (CAP), n = 7, mean (SEM)
[13] = both, human, plasma, po, 2 g, Cmax, single oral 2 g CAW (CAP), healthy older adults, n = 7, plasma, mean (SEM), ^ = below LLoQ
[14] = both, human, plasma, po, 2 g, T1/2, single oral 2 g CAW (CAP), n = 7, mean (SEM)
[15] = both, human, plasma, po, 2 g, Tmax, single oral 2 g CAW (CAP), n = 7, mean (SEM)
[16] = both, human, plasma, po, 4 g, single oral 4 g CAW (CAP), n = 7, mean (SEM)
[17] = both, human, plasma, po, 4 g, Cmax, single oral 4 g CAW (CAP), healthy older adults, n = 7, plasma, mean (SEM), ^ = below LLoQ
[18] = both, human, plasma, po, 4 g, T1/2, single oral 4 g CAW (CAP), n = 7, mean (SEM)
[19] = both, human, plasma, po, 4 g, Tmax, single oral 4 g CAW (CAP), n = 7, mean (SEM)
[20] = condition 1 long-term storage at −80°C, medium concentration
[21] = single oral 2 g CAW (CAP), n = 7, mean (SEM)
[22] = single oral 4 g CAW (CAP), n = 7, mean (SEM)
[23] = condition 2 freeze-thaw, low concentration

O=C(O)/C=C/c1ccc(O)c(O)c1 [CA, caffeic acid]
Stability, percent of nominal concentration [1, 5]: 108% | Stability, percent of nominal concentration ([1]; condition 3 4°C for 24 h, low concentration): 63% | Stability, percent of nominal concentration [1, 6]: 75% | Stability, percent of nominal concentration [2, 7]: 211% | Stability, percent of nominal concentration [2, 8]: 129% | Stability, percent of nominal concentration [2, 9]: 224% | Stability, percent of nominal concentration ([2]; condition 3 overnight storage at 4°C, medium concentration): 86% | AUC(0-12) (clinical; both, human, in vivo, po): 2.4 (0.6) ng/mL*hr | T1/2 (clinical; both, human, in vivo, po): 10.3 (3.7) hr | Tmax (clinical; both, human, in vivo, po): 4.5 (1.6) hr | AUC(0-t) (clinical; both, human, in vivo, po): 1.8 ng·h/mL | Cmax (clinical; both, human, in vivo, po, Cmax): 0.5 ng/mL | half-life (clinical; both, human, in vivo, po, T1/2): 8.4 h | Tmax (clinical; both, human, in vivo, po, Tmax): 5.3 h

O=C(O)CCc1ccc(O)c(O)c1 [DHCA, Dihydrocaffeic acid]
Stability, percent of nominal concentration [1, 10]: 75% | Stability, percent of nominal concentration ([1]; condition 1 long-term storage at -80°C, medium concentration): 75% | Stability, percent of nominal concentration ([1]; condition 2 three freeze-thaw cycles, high concentration): 75% | Stability, percent of nominal concentration [1, 11]: 51% | Stability, percent of nominal concentration [1, 6]: 23% | Total urinary excretion (12 hr) ([3]; single oral 2 g CAW (CAP)): 26.8 (10.0) µg | Total urinary excretion (12 hr) ([3]; single oral 4 g CAW (CAP)): 24.8 (6.1) µg | Stability, percent of nominal concentration [2, 7]: 70% | Stability, percent of nominal concentration [2, 9]: 106% | AUC(0-t) (clinical; [12]): 1.7 ng·h/mL | Cmax (clinical; [13]): 0.4 ng/mL | half-life (clinical; [14]): 1.8 h | Tmax (clinical; [15]): 6.1 h | AUC(0-t) (clinical; [16]): 1.9 ng·h/mL | Cmax (clinical; [17]): 0.5 ng/mL | half-life (clinical; [18]): 1.9 h | Tmax (clinical; [19]): 3.2 h

COc1cc(CCC(=O)O)ccc1O [DHFA, Dihydroferulic acid]
Stability, percent of nominal concentration [1, 10]: 81% | Stability, percent of nominal concentration [1, 5]: 97% | Stability, percent of nominal concentration [2, 7]: 79% | Stability, percent of nominal concentration [2, 20]: 67% | Stability, percent of nominal concentration [2, 8]: 84% | AUC(0-12) (clinical; both, human, in vivo, po): 41.0 (12.7) ng/mL*hr | Cmax (clinical; both, human, in vivo, po): 8.1 (2.9) ng/mL | T1/2 (clinical; both, human, in vivo, po): 6.6 (3.8) hr | Tmax (clinical; both, human, in vivo, po): 5.7 (1.5) hr | AUC(0-t) (clinical; both, human, in vivo, po): 35.6 ng·h/mL | Cmax (clinical; both, human, in vivo, po, Cmax): 9.3 ng/mL | half-life (clinical; both, human, in vivo, po, T1/2): 7.1 h | Tmax (clinical; both, human, in vivo, po, Tmax): 5.9 h

COc1cc(/C=C/C(=O)O)ccc1O [FA, ferulic acid]
Stability, percent of nominal concentration [1, 10]: 129% | Total urinary excretion (12 hr) ([3]; single oral 2 g CAW (CAP)): 146.8 (33.5) µg | Total urinary excretion (12 hr) ([3]; single oral 4 g CAW (CAP)): 137.4 (24.6) µg | Stability, percent of nominal concentration [2, 7]: 81% | Cmax (clinical; single oral 2 g CAW (CAP), healthy older adults, n = 7, plasma, mean (SEM), ^ = below LLoQ): 1.5 (0.3) ng/mL | AUC(0-12) (clinical; [21]): 11.3 (2.9) ng/mL*hr | T1/2 (clinical; [21]): 14.1 (3.9) hr | Tmax (clinical; [21]): 5.9 (1.3) hr | Cmax (clinical; single oral 4 g CAW (CAP), healthy older adults, n = 7, plasma, mean (SEM), ^ = below LLoQ): 1.5 (0.6) ng/mL | AUC(0-12) (clinical; [22]): 9.9 (2.8) ng/mL*hr | T1/2 (clinical; [22]): 2.9 (1.3) hr | Tmax (clinical; [22]): 7.1 (1.2) hr

O=C(O)CCc1cccc(O)c1 [HPP, 3-(3-hydroxyphenyl) propionic acid]
Total urinary excretion (12 hr) ([3]; single oral 2 g CAW (CAP)): 223.4 (76.7) µg | Total urinary excretion (12 hr) ([3]; single oral 4 g CAW (CAP)): 247.9 (73.6) µg | Stability, percent of nominal concentration [2, 7]: 48% | Stability, percent of nominal concentration [2, 20]: 81% | Stability, percent of nominal concentration [2, 23]: 96% | AUC(0-t) (clinical; [12]): 56.8 ng·h/mL | Cmax (clinical; [13]): 5.8 ng/mL | half-life (clinical; [14]): 5 h | Tmax (clinical; [15]): 7.4 h | AUC(0-t) (clinical; [16]): 50.2 ng·h/mL | Cmax (clinical; [17]): 10.6 ng/mL | half-life (clinical; [18]): 2.6 h | Tmax (clinical; [19]): 5.7 h

COc1ccc(/C=C/C(=O)O)cc1O [IFA, isoferulic acid]
Stability, percent of nominal concentration [1, 11]: 117% | Total urinary excretion (12 hr) ([3]; single oral 2 g CAW (CAP)): 65.9 (23.1) µg | Stability, percent of nominal concentration ([2]; condition 1 long-term storage at −80°C, high concentration): 84% | Stability, percent of nominal concentration [2, 23]: less than 115% | Stability, percent of nominal concentration [2, 8]: 80% | AUC(0-t) (clinical; [12]): 5.3 ng·h/mL | Cmax (clinical; [13]): 1.5 ng/mL | half-life (clinical; [14]): 7 h | Tmax (clinical; [15]): 2.4 h | AUC(0-t) (clinical; [16]): 7.4 ng·h/mL | Cmax (clinical; [17]): 1.5 ng/mL | half-life (clinical; [18]): 3.5 h

madecassoside [MS]
Total urinary excretion (12 hr) ([3]; single oral 2 g CAW (CAP)): Not detected | Total urinary excretion (12 hr) ([3]; single oral 4 g CAW (CAP)): Not detected | Tmax [4]: 1 to 2 h | Stability, percent of nominal concentration [2, 7]: 57% | Stability, percent of nominal concentration [2, 20]: 84% | Stability, percent of nominal concentration ([2]; condition 2 freeze-thaw, high concentration): 82% | Stability, percent of nominal concentration [2, 8]: 78% | Detection in plasma (clinical; after 2 or 4 g CAP, oral): not detected; also recorded: below the LoD
